How the values were obtained:
[1] = biological target: T1, purified porcine brain tubulin (Sus scrofa, UniProt P02554); assay: Biolayer interferometry (BLI) binding to tubulin; conditions: immobilized tubulin, 1:1 binding model, mean ± SD, triplicate
T1 construct: purified porcine brain tubulin; from tissue; host or cells: porcine brain
Method: To detect the direct interaction between the synthesized compounds and tubulin, biolayer interferometry (BLI) experiments were performed using purified porcine brain tubulin immobilized on Super Streptavidin (SSA) biosensor [30]. […] Association and dissociation kinetics were monitored in real time, and equilibrium dissociation constants (KD) were determined by global fitting of the sensorgrams to a 1:1 binding model. All measurements were conducted in triplicate, and results are reported as mean ± SD.
BLI assays were performed on an Octet RED96 instrument (FortéBio, Pall Life Sciences, Menlo Park, CA, USA) at 25 °C in PBS buffer supplemented with 0.02% (v/v) Tween-20 as the running buffer. Biotinylated tubulin proteins (3 μg/mL) were immobilized onto Super Streptavidin (SSA) biosensors. Association and dissociation were monitored for 60 s each. […] Reference subtraction was performed using sensors incubated in running buffer without protein loading to correct for baseline drift. Data were analyzed using Octet Data Analysis software (version 9.0), and equilibrium dissociation constants (KD) were determined by fitting the curves to a 1:1 binding model. All measurements were performed in triplicate, and results are reported as mean ± SD.
BLI assays were performed on an Octet RED96 instrument (FortéBio, Pall Life Sciences) at 25 °C in PBS buffer supplemented with 0.02% (v/v) Tween-20 as the running buffer. Biotinylated tubulin proteins (3 μg/mL) were immobilized onto Super Streptavidin (SSA) biosensors. Association and dissociation were monitored for 60 s […]
Reference subtraction was performed using sensors incubated in running buffer without protein loading to correct for baseline drift. Data were analyzed using Octet Data Analysis software (version 9.0), and equilibrium dissociation constants (KD) were determined by fitting the curves to a 1:1 binding model. All measurements were performed in triplicate, and results are reported as mean ± SD.

A375 cells = assay: CCK-8 antiproliferative assay, A375; type: cell-based; conditions: Homo sapiens, A-375; cell viability (CCK-8), 48 h
Method: (§1) To evaluate the anticancer potential of the synthesized compounds, a panel of six human and murine cancer cell lines representing different tissue origins was selected, including MCF-7 (human breast adenocarcinoma), MDA-MB-231 (human triple-negative breast cancer), A549 (human non-small cell lung cancer), HeLa (human cervical cancer), A375 (human melanoma), and B16-F10 (murine melanoma) (Table 2). […] DMSO was used as the vehicle control, and all experiments were performed in triplicate to ensure reproducibility.
(§2) Human breast cancer cells (MCF-7), human lung cancer cells (A549), human cervical cancer cells (HeLa), human triple-negative breast cancer cells (MDA-MB-231), and human malignant melanoma cells (A375) were cultured in DMEM. Mouse melanoma cells (B16F10) were maintained in RPMI-1640 medium. All media were supplemented with 10% fetal bovine serum and 1% penicillin-streptomycin (Life Technologies, Carlsbad, CA, USA) and maintained at 37 °C in a humidified atmosphere with 5% CO2.
(§3) The cytotoxicity of the test compounds was evaluated against MCF-7, A549, HeLa, MDA-MB-231, A375, and B16F10 using the CCK-8 assay. Cells were seeded into 96-well plates at a density of 5000 cells/well. After removing the medium, 100 μL of medium with 0.1% DMSO containing test compounds at different concentrations was added to each well and incubated at 37 °C for another 48 h. The CCK-8 solution was added and incubated for another 1 h, and then, the absorbance was detected with a microplate reader at a wavelength of 450 nm. The IC50 values were calculated by nonlinear regression analysis using GraphPad Prism 8.0.2. All the experiments were repeated at least three times.

A549 cells = assay: CCK-8 antiproliferative assay, A549; type: cell-based; conditions: Homo sapiens, cell viability (CCK-8), 48 h
Method: as §1, §2, §3

MCF-7 cells = assay: CCK-8 antiproliferative assay, MCF-7; type: cell-based; conditions: Homo sapiens, MCF7; cell viability (CCK-8), 48 h
Method: as §1, §2, §3

MDA-MB-231 cells = assay: CCK-8 antiproliferative assay, MDA-MB-231; type: cell-based; conditions: Homo sapiens, cell viability (CCK-8), 48 h
Method: as §1, §2, §3

HeLa cells = assay: CCK-8 antiproliferative assay, HeLa; type: cell-based; conditions: Homo sapiens, cell viability (CCK-8), 48 h
Method: as §1, §2, §3

B16-F10 cells = assay: CCK-8 antiproliferative assay, B16-F10; type: cell-based, murine; conditions: Mus musculus, cell viability (CCK-8), 48 h
Method: as §1, §2, §3

[2] = biological target: T2, Porcine brain tubulin protein (Sus scrofa, UniProt P02554); assay: In vitro tubulin polymerization assay; type: biochemical; conditions: read-out: IC50, inhibitory effect on tubulin polymerization
T2 construct: Porcine brain tubulin protein was dissolved in EM buffer; from tissue; host or cells: porcine brain
T2 sequence (P02554 whole entry): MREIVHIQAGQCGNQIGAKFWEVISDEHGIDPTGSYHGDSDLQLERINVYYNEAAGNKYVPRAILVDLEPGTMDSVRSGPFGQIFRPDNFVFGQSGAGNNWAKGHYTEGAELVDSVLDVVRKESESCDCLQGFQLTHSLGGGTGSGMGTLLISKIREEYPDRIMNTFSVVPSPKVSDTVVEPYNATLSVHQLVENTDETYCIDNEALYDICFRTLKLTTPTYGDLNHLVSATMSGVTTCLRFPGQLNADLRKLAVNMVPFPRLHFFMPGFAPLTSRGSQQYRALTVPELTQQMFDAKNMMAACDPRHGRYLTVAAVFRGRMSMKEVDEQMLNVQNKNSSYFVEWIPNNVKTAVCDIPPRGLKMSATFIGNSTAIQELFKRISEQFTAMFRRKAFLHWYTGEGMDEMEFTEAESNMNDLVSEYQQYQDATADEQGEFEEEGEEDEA
T2 sequence (P02550 whole entry partner): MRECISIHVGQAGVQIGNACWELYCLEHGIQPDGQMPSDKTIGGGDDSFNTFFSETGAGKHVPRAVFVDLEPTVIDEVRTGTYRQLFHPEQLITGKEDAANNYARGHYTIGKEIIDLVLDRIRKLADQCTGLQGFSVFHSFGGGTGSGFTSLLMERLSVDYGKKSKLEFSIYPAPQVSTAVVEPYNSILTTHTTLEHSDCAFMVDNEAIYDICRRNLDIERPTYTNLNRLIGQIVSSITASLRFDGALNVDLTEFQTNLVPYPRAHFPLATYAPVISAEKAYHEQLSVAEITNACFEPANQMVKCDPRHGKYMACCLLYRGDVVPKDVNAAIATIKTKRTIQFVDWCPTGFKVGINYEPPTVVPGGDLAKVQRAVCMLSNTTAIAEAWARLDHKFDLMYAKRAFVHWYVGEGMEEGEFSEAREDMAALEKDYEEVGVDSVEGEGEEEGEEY
Method: The ability of compound 3g to disrupt microtubule dynamics was assessed using an in vitro tubulin polymerization assay.
Porcine brain tubulin protein was dissolved in EM buffer containing 5% glycerol (80 mM PIPES, 2 mM GTP, 2 mM MgCl2, and 0.5 mM EGTA, pH 6.9). Compounds were diluted in EM buffer to final concentrations of 50, 25, 10, 5, and 2.5 μM and added to a pre-warmed 384-well plate, followed by pre-incubation at 37 °C. Subsequently, 14 μL of the tubulin-GTP mixture was added to each well containing the test compounds. Tubulin polymerization was monitored by measuring absorbance at 340 nm every minute for 60 min. […] Each assay was performed in triplicate.
Absorbance at 340 nm was determined every 1 min.

T1 sequence (P02554 whole entry): as the sequence (P02554 whole entry) above
T1 sequence (P02550 whole entry partner): as the sequence (P02550 whole entry partner) above

Row | SMILES | Kd [1] [µM] | IC50 (A375 cells) [µM] | IC50 (A549 cells) [µM] | IC50 (MCF-7 cells) [µM] | IC50 (MDA-MB-231 cells) [µM] | IC50 (HeLa cells) [µM] | IC50 (B16-F10 cells) [µM] | KD [1] | IC50 [2] [µM]
1 | COc1cc(-n2ccc3ccc(-c4ccccc4)cc32)cc(OC)c1OC [3a, 6-phenyl-1-(3,4,5-trimethoxyphenyl)-1H-indole] | 39 ± 2.6 | 1.16 ± 0.12 | 36.6 ± 1.78 | 10.1 ± 0.68 | 78.92 ± 0.57 | > 100 | 45.4 ± 1.11 |  | 
2 | COc1cc(-n2ccc3ccc(-c4cccc(C#N)c4)cc32)cc(OC)c1OC [3b, 3-(1-(3,4,5-trimethoxyphenyl)-1H-indol-6-yl)benzonitrile] | 29 ± 4.1 | 27.5 ± 2.5 | 41.2 ± 3.42 | 3.33 ± 0.28 | 42.9 ± 3.13 | 38.5 ± 2.25 | 3.78 ± 0.14 | low micromolar range | 
3 | COc1cc(-n2ccc3ccc(-c4cccc(C)c4)cc32)cc(OC)c1OC [3c, 6-(m-tolyl)-1-(3,4,5-trimethoxyphenyl)-1H-indole] | 23 ± 2.12 | 53.2 ± 4.06 | 92.4 ± 8.58 | 9.15 ± 0.21 | 37.7 ± 0.89 | 66.5 ± 6.21 | 59.2 ± 5.86 | low micromolar range | 
4 | CCc1ccccc1-c1ccc2ccn(-c3cc(OC)c(OC)c(OC)c3)c2c1 [3d, 6-(2-ethylphenyl)-1-(3,4,5-trimethoxyphenyl)-1H-indole] | 24 ± 2.13 | 24.84 ± 0.16 | 60.2 ± 4.17 | 34.2 ± 1.62 | 23.4 ± 0.44 | 46.6 ± 3.65 | 6.49 ± 0.4 | low micromolar range | 
5 | CCc1ccc(-c2ccc3ccn(-c4cc(OC)c(OC)c(OC)c4)c3c2)cc1 [3e, 6-(4-ethylphenyl)-1-(3,4,5-trimethoxyphenyl)-1H-indole] | 110 ± 14.5 | > 100 | > 100 | > 100 | > 100 | > 100 | > 100 |  | 
6 | COc1cc(-n2ccc3ccc(-c4ccccc4C(C)C)cc32)cc(OC)c1OC [3f, 6-(2-isopropylphenyl)-1-(3,4,5-trimethoxyphenyl)-1H-indole] | 47 ± 5.62 | 21.1 ± 1.17 | 87.4 ± 3.45 | 17.4 ± 0.35 | 21.37 ± 0.12 | 41.8 ± 1.11 | 6.67 ± 0.29 |  | 
7 | COc1cc(-n2ccc3ccc(-c4cccc(OC(F)(F)F)c4)cc32)cc(OC)c1OC [3h, 6-(3-(trifluoromethoxy)phenyl)-1-(3,4,5-trimethoxyphenyl)-1H-indole] | > 200 | > 100 | > 100 | > 100 | > 100 | > 100 | > 100 | undetectable binding | 
8 | CCCCc1ccc(-c2ccc3ccn(-c4cc(OC)c(OC)c(OC)c4)c3c2)cc1 [3i, 6-(4-butylphenyl)-1-(3,4,5-trimethoxyphenyl)-1H-indole] | > 200 | > 100 | > 100 | > 100 | > 100 | > 100 | > 100 | undetectable binding | 
9 | COc1cc(-n2ccc3ccc(-c4ccc(SC)cc4)cc32)cc(OC)c1OC [3j, 6-(4-(methylthio)phenyl)-1-(3,4,5-trimethoxyphenyl)-1H-indole] | > 200 | > 100 | > 100 | > 100 | > 100 | > 100 | > 100 | undetectable binding | 
10 | COc1cc(-n2ccc3ccc(-c4ccc(C(C)C)cc4)cc32)cc(OC)c1OC [3k, 6-(4-isopropylphenyl)-1-(3,4,5-trimethoxyphenyl)-1H-indole] | > 200 | > 100 | > 100 | > 100 | > 100 | > 100 | > 100 | undetectable binding | 
11 | COc1cc(-n2ccc3ccc(-c4ccccc4C#N)cc32)cc(OC)c1OC [3l, 2-(1-(3,4,5-trimethoxyphenyl)-1H-indol-6-yl)benzonitrile] | 26 ± 3.38 | > 100 | > 100 | > 100 | > 100 | > 100 | > 100 | low micromolar range | 
12 | COc1cc(-n2ccc3ccc(-c4ccc(C#N)cc4)cc32)cc(OC)c1OC [3m, 4-(1-(3,4,5-trimethoxyphenyl)-1H-indol-6-yl)benzonitrile] | > 200 | > 100 | > 100 | > 100 | > 100 | > 100 | > 100 | undetectable binding | 
13 | COc1cc(-n2ccc3ccc(-c4ccc(C#N)cc4F)cc32)cc(OC)c1OC [3n, 3-fluoro-4-(1-(3,4,5-trimethoxyphenyl)-1H-indol-6-yl)benzonitrile] | 220 ± 30.8 | 16.1 ± 0.38 | 48 ± 2.56 | 14.2 ± 0.51 | 41.4 ± 1.21 | 65 ± 3.2 | 68.9 ± 3.17 |  | 
14 | COc1cc(-n2ccc3ccc(-c4ccc(Oc5ccccc5)cc4)cc32)cc(OC)c1OC [3o, 6-(4-Phenoxyphenyl)-1-(3,4,5-trimethoxyphenyl)-1H-indole] | 31 ± 3.41 | > 100 | > 100 | > 100 | > 100 | > 100 | > 100 |  | 
15 | COc1cc(-n2ccc3ccc(-c4nc5ccccc5s4)cc32)cc(OC)c1OC [3p, 2-(1-(3,4,5-trimethoxyphenyl)-1H-indol-6-yl)benzo[d]thiazole] | > 200 | > 100 | > 100 | > 100 | > 100 | > 100 | > 100 | undetectable binding | 
16 | COc1cc(-n2ccc3ccc(Cl)cc32)cc(OC)c1OC [H1] |  |  |  |  |  |  |  |  | 101

From publication PMC12693167, “Design, Synthesis and Anticancer Activity of 6-Substituted-1-(3,4,5-trimethoxyphenyl)-1H-indole Against Tubulin Polymerisation” (Molecules, 2025)
